This is an account of results in patent US9561210B2, “Therapeutic agent for ocular disease” (AskAt Inc., priority 2013, dated 2017).

For experiment [1], the system named is human retinal microvascular endothelial cells (HRMEC). The experiment can be described thus: VEGF-induced HRMEC proliferation study. In kind it is cell-based. As for the experimental part:
VEGF-Induced Human Retinal Microvascular Endothelial Cells (HRMEC) Proliferation Study
VEGF is a factor which promotes neovascularization and is thought to be one of the causes of development or progression of age-related macular degeneration (Prog. Retinal Eye Res., 22 (1), 1-29 (2003)). Therefore, the inhibitory effect of the compounds of the invention against VEGF-induced cell proliferation is assessed by using human retinal vascular endothelial cells (HRMEC).
HRMEC are seeded in 96-well plates at 2.0×10^3 cells/well, and is cultured under the conditions of 5% CO2/95% air for 24 hours. Then the culture medium is exchanged with CSC medium containing 10% fetal bovine serum and the cells are cultured for 24 hours. The culture broth is exchanged with vehicle medium or study medium containing the compound of the invention at 0.1, 1.0, 10, or 100 microM. After preincubation for 1 hour, VEGF-A solution is added to be a concentration of 10 ng/ml, and the cells cultured for 24 hours. The culture broth without adding VEGF-A solution is also treated in the same manner. Then to the culture broth is added CCK-8, and the cells are cultured for 3 hours, then the absorbance (OD492) is measured.
In accordance with the following formula, the cell proliferation inhibition rate (%) of each compound-treated group is calculated. The number of examples of each group is six. Cell proliferation inhibition rate (%)=([…])×100 [equation] BO: absorbance of vehicle-treated group BX: absorbance of compound-treated group BN: absorbance of non-treated group

The test system of experiment [2] is choroidal neovascularization. The experiment can be described thus: Laser-induced choroidal neovascularization (CNV) model. In kind it is in vivo, male C57BL/6J mouse. Particulars: in comparison to the vehicle-treated group. The method, then: Laser-Induced Choroidal Neovascularization (CNV) Model A male C57BL/6J mouse is used. Mydrin P ophthalmic solution (registered trademark, Santen Pharmaceutical) is instilled into the right eye of the mouse to cause mydriasis. Animals are anesthetized, and laser irradiation is performed on around the circumference of the optic disk with eight equally space using a laser photocoagulation apparatus. After photocoagulation, intravitreal administration of drugs to the right eye (administering 2 microL of a solution of 60 microM and 600 microM using a solvent obtained by mixing 0.1N NaOH and pH 7.2 PBS containing 1.5×10^-3N HCl, at the ratio of 16:84) or oral administration/subcutaneous administration/intraperitoneal administration is conducted. After instillation of […] (registered trademark, Daiichi Sankyo) ophthalmic solution 0.5% into the right eye, the ocular fundus photography is promptly performed using an ocular fundus camera. […] Choroidal flat mounts specimens are observed using a confocal laser scanning microscope, and the CNV area of the image is calculated using the analysis software OLYMPUS FLUOVIEW FV1000.

With `CC(C)(C)c1cc2c(cc1Cl)C=C(C(=O)O)[C@@H](C(F)(F)F)O2` [Compound A, (S)-6-chloro-7-(1,1-dimethylethyl)-2-trifluoromethyl-2H-1-benzopyran-3-carboxylic acid], in experiment [1] (Compound A alone, without VEGF-A, FIG. 1 left side), the “effect on the proliferation of HRMEC” value is given as “no effect”. In addition, the “inhibition of the proliferation of HRMEC induced by VEGF-A” value in experiment [1] (VEGF-A 10 ng/ml, 24 hours, compound at 0.1, 1.0, 10, or 100 microM, FIG. 1 right side) was “inhibits the proliferation of HRMEC induced by VEGF-A in a dose-dependent manner”. Besides, the “inhibition of VEGF-A-induced cell proliferation” value in experiment [1] (at 10 to 100 microM, VEGF-A 10 ng/ml) is given as “inhibits the cell proliferation to control levels”. Moreover, the CNV area result in experiment [2] (choroidal flat mount, day 15 after laser, FIG. 2) is on record as “significantly reduced”. In addition, in experiment [2] (histopathological specimens, FIG. 3), the “CNV area (pathological image)” value was “significantly reduced”.
